Reference: the NIST ThermoML archive (doi:10.1021/je034208m)

Experiment: xn = mol fraction of the nth substance listed
Details: 101.33 kPa, Liquid; for speed of sound: Sing-around technique in a fixed-path interferometer

CCCC(C)O (stereo unspecified) [pentan-2-ol] + CCCCCCCCCC
Details	mass density, 293.15 K [kg/m3]	mass density, 298.15 K [kg/m3]	mass density, 303.15 K [kg/m3]	speed of sound, 293.15 K [m/s]	speed of sound, 298.15 K [m/s]	speed of sound, 303.15 K [m/s]	viscosity, 293.15 K [mPa·s]	viscosity, 298.15 K [mPa·s]	viscosity, 303.15 K [mPa·s]
x1 = 0.0487	731.62	727.76	723.89	1251	1231	1211	0.914	0.845	0.779
x1 = 0.0987	733.41	729.53	725.62	1248	1228	1209	0.912	0.844	0.782
x1 = 0.2043	738.14	734.23	730.28	1243	1223	1204	0.956	0.882	0.81
x1 = 0.2996	742.88	738.94	734.96	1239	1220	1200	0.989	0.909	0.842
x1 = 0.4006	748.67	744.7	740.69	1236	1216	1197	1.084	0.99	0.883
x1 = 0.5017	755.31	751.3	747.25	1233	1214	1194	1.149	1.044	0.952
x1 = 0.6002	762.88	758.83	754.73	1232	1213	1193	1.3	1.166	1.053
x1 = 0.6985	771.67	767.58	763.44	1233	1214	1194	1.531	1.352	1.201
x1 = 0.7992	782.4	778.29	774.12	1237	1217	1198	1.914	1.646	1.439
x1 = 0.8996	794.55	790.46	786.3	1242	1223	1204	2.626	2.214	1.888
x1 = 0.95	801.5	797.43	793.28	1246	1228	1209	3.205	2.651	2.244
x1 = 1	809.04	805.01	800.9	1250	1232	1214	4.001	3.273	2.708

CCCC(C)O (stereo unspecified) [pentan-2-ol] + CCCCCCCCCCCC
Details	mass density, 293.15 K [kg/m3]	mass density, 298.15 K [kg/m3]	mass density, 303.15 K [kg/m3]	speed of sound, 293.15 K [m/s]	speed of sound, 298.15 K [m/s]	speed of sound, 303.15 K [m/s]	viscosity, 293.15 K [mPa·s]	viscosity, 298.15 K [mPa·s]	viscosity, 303.15 K [mPa·s]
x1 = 0.049	749.65	745.96	742.26	1294	1275	1256	1.443	1.316	1.206
x1 = 0.0965	750.77	747.03	743.3	1291	1271	1252	1.441	1.312	1.201
x1 = 0.2065	753.81	750.05	746.25	1284	1265	1245	1.438	1.307	1.194
x1 = 0.2993	756.86	753.06	749.23	1278	1259	1240	1.465	1.33	1.211
x1 = 0.3986	760.67	756.84	752.97	1271	1252	1233	1.499	1.355	1.231
x1 = 0.5046	765.6	761.71	757.79	1265	1246	1227	1.563	1.406	1.27
x1 = 0.5974	770.7	766.77	762.79	1260	1241	1222	1.667	1.487	1.338
x1 = 0.7026	777.76	773.76	769.72	1255	1236	1217	1.865	1.635	1.447
x1 = 0.8001	785.82	781.77	777.66	1253	1233	1214	2.205	1.9	1.652
x1 = 0.8994	795.9	791.84	787.71	1251	1232	1213	2.786	2.347	1.998
x1 = 0.9497	802.07	798.02	793.89	1251	1232	1213	3.267	2.717	2.284
x1 = 1	809.04	805	800.9	1250	1232	1214	4.001	3.273	2.708
